Experimental data: the NIST ThermoML archive (doi:10.1016/j.fluid.2004.09.013)

Conditions: for mass density: Fluid (supercritical or subcritical phases), Vibrating tube method; for vapor or sublimation pressure: Liquid

C/C=C\C [(Z)-2-butene]
Conditions	mass density [kg/m3]
333.22 K, 14991 kPa	598.72
333.22 K, 19994 kPa	606.12
333.22 K, 24988 kPa	612.8
333.22 K, 30003 kPa	618.94
333.22 K, 34991 kPa	624.59
333.22 K, 40010 kPa	629.87
338.22 K, 1174 kPa	565.5
338.22 K, 4996 kPa	574.54
338.22 K, 9996 kPa	584.64
338.22 K, 14984 kPa	593.34
338.22 K, 19986 kPa	601.06
338.22 K, 25003 kPa	608.03
338.22 K, 29995 kPa	614.37
338.22 K, 34988 kPa	620.2
338.22 K, 39995 kPa	625.64
343.22 K, 1261 kPa	558.56
343.22 K, 4987 kPa	568.03
343.22 K, 9997 kPa	578.77
343.22 K, 14987 kPa	587.91
343.22 K, 19988 kPa	595.98
343.22 K, 25014 kPa	603.24
343.22 K, 30005 kPa	609.78
343.22 K, 34992 kPa	615.82
343.22 K, 40014 kPa	621.42
348.22 K, 1356 kPa	551.46
348.22 K, 4981 kPa	561.37
348.22 K, 10002 kPa	572.81
348.22 K, 14996 kPa	582.44
348.22 K, 19993 kPa	590.86
348.22 K, 25004 kPa	598.39
348.22 K, 30012 kPa	605.19
348.22 K, 34983 kPa	611.41
348.22 K, 39993 kPa	617.18
353.22 K, 1456 kPa	544.16
353.22 K, 5002 kPa	554.62
353.22 K, 14994 kPa	576.89
353.22 K, 19998 kPa	585.7
353.22 K, 24991 kPa	593.51
353.22 K, 29987 kPa	600.55
353.22 K, 34994 kPa	606.99
353.22 K, 40002 kPa	612.94
353.23 K, 10003 kPa	566.75
358.22 K, 1569 kPa	536.68
358.22 K, 4987 kPa	547.6
358.22 K, 9992 kPa	560.57
358.22 K, 15002 kPa	571.3
358.22 K, 19998 kPa	580.5
358.22 K, 24995 kPa	588.63
358.22 K, 29992 kPa	595.93
358.22 K, 34990 kPa	602.57
358.22 K, 40000 kPa	608.7
363.23 K, 1690 kPa	528.95
363.23 K, 4993 kPa	540.42
363.23 K, 9989 kPa	554.28
363.23 K, 15000 kPa	565.61
363.23 K, 19996 kPa	575.23
363.23 K, 25014 kPa	583.72
363.23 K, 29996 kPa	591.25
363.23 K, 34991 kPa	598.13
363.23 K, 40007 kPa	604.46
368.22 K, 1794 kPa	520.86
368.22 K, 4994 kPa	533.05
368.22 K, 9998 kPa	547.94
368.22 K, 15001 kPa	559.86
368.22 K, 20006 kPa	569.97
368.22 K, 24996 kPa	578.78
368.22 K, 30000 kPa	586.63
368.23 K, 35006 kPa	593.73
368.23 K, 40001 kPa	600.21
373.23 K, 1956 kPa	512.69
373.23 K, 5016 kPa	525.44
373.23 K, 10014 kPa	541.44
373.23 K, 15017 kPa	554.07
373.23 K, 20017 kPa	564.64
373.23 K, 25015 kPa	573.81
373.23 K, 30004 kPa	581.92
373.23 K, 35002 kPa	589.24
373.23 K, 39988 kPa	595.91
378.23 K, 2103 kPa	504.11
378.23 K, 5016 kPa	517.48
378.23 K, 9997 kPa	534.7
378.23 K, 15005 kPa	548.12
378.23 K, 19992 kPa	559.18
378.23 K, 24999 kPa	568.75
378.23 K, 29991 kPa	577.18
378.23 K, 34989 kPa	584.74
378.23 K, 39985 kPa	591.64
383.23 K, 2265 kPa	495.17
383.23 K, 4994 kPa	509.13
383.23 K, 9994 kPa	527.89
383.23 K, 15008 kPa	542.15
383.23 K, 20012 kPa	553.81
383.23 K, 24996 kPa	563.74
383.23 K, 29984 kPa	572.46
383.23 K, 34981 kPa	580.28
383.23 K, 40007 kPa	587.41
388.23 K, 2438 kPa	485.86
388.23 K, 4986 kPa	500.47
388.23 K, 9987 kPa	520.91
388.23 K, 14983 kPa	536.02
388.23 K, 19990 kPa	548.28
388.23 K, 24990 kPa	558.67
388.23 K, 30000 kPa	567.77
388.23 K, 34996 kPa	575.85
388.23 K, 39999 kPa	583.17
393.23 K, 2620 kPa	476.09
393.23 K, 4998 kPa	491.49

Conditions	vapor or sublimation pressure [kPa]
335.93 K	625.67
344.91 K	767.01
345.17 K	778.59
353.84 K	949.22
364.75 K	1196.6
367.83 K	1274.3
376.36 K	1508.8
380.95 K	1643.2
382.47 K	1703.7
390.94 K	1988
